The source of these data is patent US11040028B2, “Penicinotam derivative, preparation method and use thereof” (OCEAN UNIVERSITY OF CHINA, priority 2017, dated 2021).

Some results are limits rather than exact numbers.

Holding throughout (type): cell-based
Test [1] deals with human hepatic stellate cells LX-2. Nature of the test: Anti-fibrosis activity test: inhibition of proliferation of human hepatic stellate cells LX-2 (CCK-8). As to conditions: human hepatic stellate cells LX-2, CCK-8, 48 hours. As for the experimental part:
(§1) BHK-21 cells in exponential growth phase were selected. After the fusion growth reached 85-95%, normal passage method was utilized to digest and collect the cells, followed by cell counting and adjusting the cell density to 2×10^4 cells/mL. The cells were seeded into 96-well plates, 100 μL/well, and were incubated under the condition of 5% CO2 at 37° C.
(§2) The supernatant was removed after the cells had adhered to the wall for 24 hours. The culture solution containing the prepared compounds at different concentrations were added to the wells, 100 μL/well, each concentration in triplicate. The cells were subcultured for 48 hours after administration. Commercially available pirfenidone was employed as the positive control.
(§3) 10 μL of CCK-8 solution ( 1/10 of the volume of the culture solution) was added to each well 48 hours after the administration, and incubated for 2 hours. The absorbance (A) of each well was determined by a microplate reader at 450 nm wavelength. The inhibition rate against cell proliferation for each compound was calculated based on A, wherein inhibition rate against cell proliferation (inhibition ratio, IR)=(1−value of experimental group (Ai)/value of blank control group (Ao))×100% and the IC50 value of each compound was calculated by the data processing software.
(§4) Using the same protocol for the cell experiments, the inhibitory activity of the test compounds against the proliferation of human lung fibroblasts HFL1, human hepatic stellate cells LX-2, human fibrosarcoma cells HT-1080, human dermal fibroblasts CCC-ESF-1, human embryonic lung fibroblast IMR-90, cardiac fibroblast RAT-iCell-C002 was assayed.

The test system of test [2] is human fibrosarcoma cells HT-1080. Nature of the test: Anti-fibrosis activity test: inhibition of proliferation of human fibrosarcoma cells HT-1080 (CCK-8). As to conditions: human fibrosarcoma cells HT-1080, CCK-8, 48 hours. As for the experimental part:
as §1, §2, §3, §4

Test [3] has as its system human dermal fibroblasts CCC-ESF-1. Nature of the test: Anti-fibrosis activity test: inhibition of proliferation of human dermal fibroblasts CCC-ESF-1 (CCK-8). The note with it: human dermal fibroblasts CCC-ESF-1, CCK-8, 48 hours. As for the experimental part: as §1, §2, §3, §4
The subject of test [4] is human lung fibroblasts HFL1. Kind of test: Anti-fibrosis activity test: inhibition of proliferation of human lung fibroblasts HFL1 (CCK-8). As to conditions: human lung fibroblasts HFL1, CCK-8, 48 hours. On the procedure:
as §1, §2, §3, §4

Test [5] concerns cardiac fibroblast RAT-iCell-C002. Kind of test: Anti-fibrosis activity test: inhibition of proliferation of cardiac fibroblast RAT-iCell-C002 (CCK-8). The note with it: Cardiac fibroblast, 48 h, cardiac fibroblast RAT-iCell-C002, CCK-8, 48 hours. On the procedure:
as §1, §2, §3, §4

Test [6] relates to human embryonic lung fibroblast IMR-90. Nature of the test: Anti-fibrosis activity test: inhibition of proliferation of human embryonic lung fibroblast IMR-90 (CCK-8). As to conditions: human embryonic lung fibroblast IMR-90, CCK-8, 48 hours. As for the experimental part:
as §1, §2, §3, §4

The subject of test [7] is BHK-21 cells. Kind of test: Anti-fibrosis activity test: inhibition of BHK-21 cell proliferation (CCK-8). On the procedure:
as §1, §2, §3

Where [8] appears, read: Mesocricetus auratus, BHK-21, 48 h, CCK-8, 48 hours after administration.
The mark [9] stands for this setting: CCK-8, 48 hours after administration.

`O=C(Cn1c2c(c(=O)c3ccccc31)C(=O)n1cccc1-2)c1ccc(C(F)(F)F)cc1` [Compound 91a, 4-(2-Oxo-2-(4-(trifluoromethyl)phenyl)ethyl)-9H-pyrrolizino[1,2-b]quinoline-9,10(4)-dione]: the IC50 was in the range of 0.05 to 5 mM in test [1] and 5 to 20 mM in test [2].
Consider `CC(C)CCn1c2c(c(=O)c3cc(F)ccc31)C(=O)n1cccc1-2` [Compound 105a, 7-Fluoro-4-isopentyl-9H-pyrrolizino[1,2-b]quinoline-9,10(4H)-dione], for which the IC50 in test [1] (Homo sapiens, 48 h) lay within 0.05 to 5 mM; in test [3] (Fibroblast), 0.05 to 5 mM; in test [4] (Homo sapiens, HFL1, 48 h), 0.05 to 5 mM; in test [5], 0.05 to 5 mM; in test [2] (Homo sapiens, HT-1080, 48 h), 0.05 to 5 mM; in test [6], 0.05 to 5 mM. This molecule also gave a half-maximal inhibitory concentration (IC50) in test [7] (setting [8]) of 0.05 to 5 mM.
As to `CC(C)CCOc1c2c(nc3ccc(F)cc13)-c1cccn1C2=O` [Compound 105b, 7-fluoro-9-(isopentyloxy)-10H-pyrrolizino[1,2-b]quinolin-10-one], the concentration for half-maximal inhibition (IC50) was 0.05 to 5 mM in test [1] (Homo sapiens, 48 h); 0.05 to 5 mM in test [3] (Fibroblast); 0.05 to 5 mM in test [4] (Homo sapiens, HFL1, 48 h); 0.05 to 5 mM in test [5]; 0.05 to 5 mM in test [2] (Homo sapiens, HT-1080, 48 h); 0.05 to 5 mM in test [6]. In addition, in test [7] (setting [8]), the IC50 was 0.05 to 5 mM.
As for `O=C1c2c([nH]c3cc(N4CCNCC4)c(F)cc3c2=O)-c2cccn21` [Compound 346a, 7-Fluoro-6-(piperazin-1-yl)-9H-pyrrolizino[1,2-b]quinoline-9,10(4H)-dione], the concentration for half-maximal inhibition (IC50) was 0.05 to 5 mM in test [1] (Homo sapiens, 48 h); 0.05 to 5 mM in test [3] (Fibroblast); 0.05 to 5 mM in test [4] (Homo sapiens, HFL1, 48 h); 0.05 to 5 mM in test [5]; 0.05 to 5 mM in test [2] (Homo sapiens, HT-1080, 48 h); 0.05 to 5 mM in test [6]. This molecule yielded a 50% inhibitory concentration (IC50) in test [7] (setting [8]) of 0.05 to 5 mM.
Turning to `O=C1c2c(nc3cc(N4CCNCC4)c(F)cc3c2O)-c2cccn21` [Compound 346b, 7-fluoro-9-hydroxy-6-(piperazin-1-yl)-10H-pyrrolizino[1,2-b]quinolin-10-one], the IC50 in test [1] (Homo sapiens, 48 h) lay in the range of 0.05 to 5 mM; in test [3] (Fibroblast), 0.05 to 5 mM; in test [4] (Homo sapiens, HFL1, 48 h) it was 0.05 to 5 mM; in test [5] it was 0.05 to 5 mM; in test [2] (Homo sapiens, HT-1080, 48 h), 0.05 to 5 mM; in test [6], 0.05 to 5 mM. In test [7] (setting [8]), this molecule returned an IC50 of 0.05 to 5 mM.
With `CC(C)CCn1c2c(c(=O)c3cc(F)c(N4CCNCC4)cc31)C(=O)n1cccc1-2` [Compound 347a, 7-Fluoro-4-isopentyl-6-(piperazin-1-yl)-9H-pyrrolizino[1,2-b]quinoline-9,10(4H)-dione], the IC50 is 5 to 20 mM in test [1] (Homo sapiens, 48 h); 0.05 to 5 mM in test [3] (Fibroblast); 0.05 to 5 mM in test [4] (Homo sapiens, HFL1, 48 h); 0.05 to 5 mM in test [5]; 0.05 to 5 mM in test [2] (Homo sapiens, HT-1080, 48 h); 0.05 to 5 mM in test [6]. In addition, the half-maximal inhibitory concentration (IC50) in test [7] (setting [8]) fell in the range of 0.05 to 5 mM.
Consider `CC(C)CCOc1c2c(nc3cc(N4CCNCC4)c(F)cc13)-c1cccn1C2=O` [Compound 347b, 7-fluoro-9-(isopentyloxy)-6-(piperazin-1-yl)-10H-pyrrolizino[1,2-b]quinolin-10-one], for which the IC50 was 0.05 to 5 mM in test [1] (Homo sapiens, 48 h); 0.05 to 5 mM in test [3] (Fibroblast); 0.05 to 5 mM in test [4] (Homo sapiens, HFL1, 48 h); 0.05 to 5 mM in test [5]; 0.05 to 5 mM in test [2] (Homo sapiens, HT-1080, 48 h); 0.05 to 5 mM in test [6]. This molecule also gave an IC50 in test [7] (setting [8]) of 0.05 to 5 mM.
Consider `O=C1c2c(n(Cc3ccccc3Cl)c3cc(Cl)ccc3c2=O)-c2cccn21` [Compound 510a, 6-Chloro-4-(2-chlorobenzyl)-9H-pyrrolizino[1,2-b]quinoline-9,10(4H)-dione], for which the IC50 in test [1] (Homo sapiens, 48 h) fell in the range of 0.05 to 5 mM; in test [3] (Fibroblast), 0.05 to 5 mM; in test [4] (Homo sapiens, HFL1, 48 h), 0.05 to 5 mM; in test [5], 0.05 to 5 mM; in test [2] (Homo sapiens, HT-1080, 48 h) it was 0.05 to 5 mM; in test [6], 0.05 to 5 mM. This molecule also yielded an IC50 in test [7] (setting [8]) of less than 0.05 mM.
Consider `O=C1c2c(nc3cc(Cl)ccc3c2OCc2ccccc2Cl)-c2cccn21` [Compound 510b, 6-chloro-9-((2-chlorobenzyl)oxy)-10H-pyrrolizino[1,2-b]quinolin-10-one], for which the IC50 in test [1] (Homo sapiens, 48 h) was 0.05 to 5 mM; in test [3] (Fibroblast), 0.05 to 5 mM; in test [4] (Homo sapiens, HFL1, 48 h) it was 0.05 to 5 mM; in test [5] it was 0.05 to 5 mM; in test [2] (Homo sapiens, HT-1080, 48 h), 0.05 to 5 mM; in test [6], 0.05 to 5 mM. Besides, the IC50 in test [7] (setting [8]) was 0.05 to 5 mM.
Take `N#Cc1ccc2nc3c(c(OCc4ccc(-c5ccccc5C#N)cc4)c2c1)C(=O)n1cccc1-3` [Compound 629b, 9-((2′-cyano-[1,1′-biphenyl]-4-yl)methoxy)-10-oxo-10H-pyrrolizino[,2-b]quinoline-7-carbonitrile]: the IC50 in test [3] and in test [7] (setting [9]) was 0.05 to 5 mM throughout.
Regarding `O=C1c2c(n(Cc3ccc(F)cc3F)c3cc(N4CCNCC4)ccc3c2=O)-c2cccn21` [Compound 630a, 4-(2,4-Difluorobenzyl)-6-(piperazin-1-yl)-9H-pyrrolizino[1,2-b]quinoline-9,10(4H)-dione], the IC50 in test [4] and in test [7] (setting [9]) was less than 0.05 mM each time.
Take `O=C1c2c(nc3cc(N4CCNCC4)ccc3c2OCc2ccc(F)cc2F)-c2cccn21` [Compound 630b, 9-((2,4-difluorobenzyl)oxy)-6-(piperazin-1-yl)-10H-pyrrolizino[1,2-b]quinolin-10-one]: the IC50 in test [4] was in the range of 5 to 20 mM; in test [7] (setting [9]), 0.05 to 5 mM.
As for `O=C1c2c(n(Cc3ccc(Cl)cc3)c3cc(N4CCNCC4)c(F)cc3c2=O)-c2cccn21` [Compound 632a, 4-(4-Chlorobenzyl)-7-fluoro-6-(piperazin-1-yl)-9H-pyrrolizino[1,2-b]quinoline-9,10(4H)-dione], the IC50 was 0.05 to 5 mM in test [1] (Homo sapiens, 48 h); less than 0.05 mM in test [3] (Fibroblast); 0.05 to 5 mM in test [4] (Homo sapiens, HFL1, 48 h); 0.05 to 5 mM in test [5]; 0.05 to 5 mM in test [2] (Homo sapiens, HT-1080, 48 h); 0.05 to 5 mM in test [6]. Besides, the IC50 in test [7] (setting [8]) was 0.05 to 5 mM.
For `O=C1c2c(nc3cc(N4CCNCC4)c(F)cc3c2OCc2ccc(Cl)cc2)-c2cccn21` [Compound 632b, 9-((4-chlorobenzyl)oxy)-7-fluoro-6-(piperazin-1-yl)-10H-pyrrolizino[1,2-b]quinolin-10-one], the half-inhibitory concentration (IC50) lay within 0.05 to 5 mM in test [1] (Homo sapiens, 48 h); 0.05 to 5 mM in test [3] (Fibroblast); 0.05 to 5 mM in test [4] (Homo sapiens, HFL1, 48 h); 0.05 to 5 mM in test [5]; 0.05 to 5 mM in test [2] (Homo sapiens, HT-1080, 48 h); 0.05 to 5 mM in test [6]. This molecule had an IC50 in test [7] (setting [8]) of 0.05 to 5 mM.
As to `O=C1c2c(n(Cc3ccc(Br)cc3)c3cc(N4CCNCC4)c(F)cc3c2=O)-c2cccn21` [Compound 633a, 4-(4-Bromobenzyl)-7-fluoro-6-(piperazin-1-yl)-9H-pyrrolizino[1,2-b]quinoline-9,10(4H)-dione], the IC50 in test [1] (Homo sapiens, 48 h) fell in the range of 0.05 to 5 mM; in test [3] (Fibroblast) it was 0.05 to 5 mM; in test [4] (Homo sapiens, HFL1, 48 h), 0.05 to 5 mM; in test [5] it was 0.05 to 5 mM; in test [2] (Homo sapiens, HT-1080, 48 h), 0.05 to 5 mM; in test [6] it was 0.05 to 5 mM. Besides, the IC50 in test [7] (setting [8]) was less than 0.05 mM.
As for `O=C1c2c(n(Cc3cc(C(F)(F)F)cc(C(F)(F)F)c3)c3cc(N4CCNCC4)c(F)cc3c2=O)-c2cccn21` [Compound 639a, 4-(3,5-Bis(trifluoromethyl)benzyl)-7-fluoro-6-(piperazin-1-yl)-9H-pyrrolizino[,2-b]quinoline-9,10(4H)-dione], the IC50 in test [3] is less than 0.05 mM.
`Cc1cc2n(c1)C(=O)c1c-2nc2ccccc2c1O` [Compound 801b, 9-hydroxy-2-methyl-0H-pyrrolizino[1,2-b]quinolin-10-one] had a concentration for half-maximal inhibition (IC50) in test [7] (48 h, CCK-8) of 0.05 to 5 mM.
